This note sets out measurements from ChEMBL document CHEMBL1148138, “New eremophilenolides from Ligulariopsis shichuana” (2002).

Broadly, the zone of inhibition is the extent of the growth-free halo in a diffusion test.

One experiment has as its system Escherichia coli. The experiment in a line: Antibacterial activity against Escherichia coli at 100 ug/mL after 24 hrs by cup-plate method. The experiment is classed as functional. To be noted: read-out: Diameter of inhibition zone.
Another experiment has as its system Bacillus subtilis. The experiment in a line: Antibacterial activity against Bacillus subtilis at 100 ug/mL after 24 hrs by cup-plate method. The experiment is classed as functional. To be noted: read-out: Diameter of inhibition zone.

In the case of `C/C=C(/C)C(=O)O[C@@H]1[C@@]23O[C@@H]2C[C@H](OC(C)=O)[C@H](C)[C@@]3(C)CC2=C(C)C(=O)O[C@@]21O`, the zone of inhibition at 100 µg/mL in the experiment with Escherichia coli and in the experiment on Bacillus subtilis was 13 mm throughout.
For `CC(C)=CC(=O)O[C@H]1C[C@H]2O[C@]23C[C@@]2(O)OC(=O)C(C)=C2C[C@]3(C)[C@H]1C`, the values for the zone of inhibition at 100 µg/mL in the experiment on Escherichia coli and in the experiment with Bacillus subtilis were 13 mm and 16 mm, respectively.
The like results for `O=C(N[C@H](CO)[C@H](O)c1ccc([N+](=O)[O-])cc1)C(Cl)Cl` [CHLORAMPHENICOL] were, in that order, 16 mm and 16 mm.
